IC50 data for 32 compounds are collected here from patent publication US20070123546A1, “2-amino-7,8-dihydro-6H-pyrido[4,3-d]pyrimidin-5-ones” (Chiron Corporation, priority 2005, published 2007).

One experiment addresses His-tagged N-terminal ATP binding domain (amino acid residues 9-236) of HSP90α (Homo sapiens, UniProt P07900). Description: HSP90 inhibitor binding potency: TRF competition binding assay. The settings on record: Table 1; competition with biotinylated radicicol. In outline: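 Competition against biotinylated radicicol for binding to the His-tagged 9-236 ATP domain of HSP90α: 2 h, room temperature, HEPES/MgCl2/KCl/BSA buffer. Streptavidin capture, then europium-labeled anti-His antibody and enhancement solution; europium counts give IC50.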
Regarding `Cc1nc(N)nc2c1C(=O)NC(c1ccc(F)cc1-c1cccc(F)c1)C2` (centres unmarked) [Compound 19, 2-Amino-7-(5,3′-difluoro-biphenyl-2-yl)-4-methyl-7,8-dihydro-6H-pyrido[4,3-d]pyrimidin-5-one], the IC50 (usually the concentration needed to halve the response being measured) was < 10 µM.

Take `COc1nc(-c2cc(F)ccc2[C@H]2Cc3nc(N)nc(C)c3C(=O)N2)ncc1C` [Compound 40, (R)-2-Amino-7-[4-fluoro-2-(4-methoxy-5-methyl-pyrimidin-2-yl)-phenyl]-4-methyl-7,8-dihydro-6H-pyrido[4,3-d]pyrimidin-5-one]: the IC50 is < 10 µM.

Regarding `Cc1ccc(-c2cc(F)ccc2C2Cc3nc(N)nc(C)c3C(=O)N2)c(F)c1` (centres unmarked) [Compound 29, 2-Amino-7-(5,2′-difluoro-4′-methyl-biphenyl-2-yl)-4-methyl-7,8-dihydro-6H-pyrido[4,3-d]pyrimidin-5-one], the IC50 was < 10 µM.

Regarding `Cc1nc(N)nc2c1C(=O)NC(c1ccc(F)cc1-c1cccnc1Cl)C2` (centres unmarked) [Compound 16, 2-Amino-7-[2-(2-chloro-pyridin-3-yl)-4-fluoro-phenyl]-4-methyl-7,8-dihydro-6H-pyrido[4,3-d]pyrimidin-5-one], the IC50 was < 10 µM.

On to `COc1cncc(-c2cc(F)ccc2C2Cc3nc(N)nc(C)c3C(=O)N2C)n1` (centres unmarked) [Compound 12, 2-Amino-7-[4-fluoro-2-(6-methoxy-pyrazin-2-yl)-phenyl]-4,6-dimethyl-7,8-dihydro-6H-pyrido[4,3-d]pyrimidin-5-one], for which the IC50 is < 10 µM.

`COc1ncc(-c2cc(F)ccc2C2Cc3nc(N)nc(C)c3C(=O)N2)c(OC)n1` (centres unmarked) [Compound 35, 2-Amino-7-[2-(2,4-dimethoxy-pyrimidin-5-yl)-4-fluoro-phenyl]-4-methyl-7,8-dihydro-6H-pyrido[4,3-d]pyrimidin-5-one]: the half-inhibitory concentration (IC50) is > 10 µM.

Consider `COc1cncc(-c2cc(F)ccc2[C@H]2Cc3nc(N)nc(C)c3C(=O)N2)n1` [Compound 11, (R)-2-Amino-7-[4-fluoro-2-(6-methoxy-pyrazin-2-yl)-phenyl]-4-methyl-7,8-dihydro-6H-pyrido[4,3-d]pyrimidin-5-one], for which the half-inhibitory concentration (IC50) was < 10 µM.

The same experiment, now with this note: Table 2; competition with biotinylated radicicol.
Turning to `COc1cncc(-c2ccccc2[C@H]2Cc3nc(N)nc(C)c3C(=O)N2)n1` [Compound 69, (R)-2-Amino-7-[2-(6-methoxy-pyrazin-2-yl)-phenyl]-4-methyl-7,8-dihydro-6H-pyrido[4,3-d]pyrimidin-5-one], the IC50 is < 10 µM.

With `CCOc1ccnc(-c2cc(F)ccc2[C@H]2Cc3nc(N)nc(C)c3C(=O)N2)n1` [Compound 47, (R)-2-Amino-7-[2-(4-ethoxy-pyrimidin-2-yl)-4-fluoro-phenyl]-4-methyl-7,8-dihydro-6H-pyrido[4,3-d]pyrimidin-5-one], the IC50 is < 10 µM.

For `CCc1nc(N)nc2c1C(=O)N[C@@H](c1ccccc1-c1cncc(OC)n1)C2` [Compound 78, (R)-2-Amino-4-ethyl-7-[2-(6-methoxy-pyrazin-2-yl)-phenyl]-7,8-dihydro-6H-pyrido[4,3-d]pyrimidin-5-one], the IC50 was < 10 µM.

As to `COc1ccnc(-c2cc(F)ccc2[C@H]2Cc3nc(N)nc(C)c3C(=O)N2)n1` [Compound 48], the IC50 was < 10 µM.

For the compound `Nc1ncc2c(n1)C[C@H](c1ccc(F)cc1-c1cccnc1)NC2=O` [Compound 62, (R)-2-Amino-7-(4-fluoro-2-pyridin-3-yl-phenyl)-7,8-dihydro-6H-pyrido[4,3-d]pyrimidin-5-one], the concentration for half-maximal inhibition (IC50) was < 10 µM.

`CCc1nc(N)nc2c1C(=O)N[C@@H](c1ccccc1-c1cccc(OC)n1)C2` [Compound 77, (R)-2-Amino-4-ethyl-7-[2-(6-methoxy-pyndin-2-yl)-phenyl]-7,8-dihydro-6H-pyrido[4,3-d]pyrimidin-5-one]: the IC50 is < 10 µM.

With `CCc1nc(N)nc2c1C(=O)N[C@@H](c1ccc(F)cc1-c1cncc(OC)n1)C2` [Compound 82, (R)-2-Amino-4-ethyl-7-[4-fluoro-2-(6-methoxy-pyrazin-2-yl)-phenyl]-7,8-dihydro-6H-pyrido[4,3-d]pyrimidin-5-one], the IC50 was < 10 µM.

Consider `Cc1cccc(-c2cc(F)ccc2[C@H]2Cc3nc(N)ncc3C(=O)N2)c1` [Compound 58, (R)-2-Amino-7-(5-fluoro-3′-methyl-biphenyl-2-yl)-7,8-dihydro-6H-pyrido[4,3-d]pyrimidin-5-one], for which the IC50 is < 10 µM.

On to `Cc1cc(F)ccc1-c1cc(F)ccc1[C@H]1Cc2nc(N)ncc2C(=O)N1` [Compound 61, (R)-2-Amino-7-(5,4′-difluoro-2′-methyl-biphenyl-2-yl)-7,8-dihydro-6H-pyrido[4,3-d]pyrimidin-5-one], for which the half-maximal inhibitory concentration (IC50) is < 10 µM.

In the case of `CCOc1nc(-c2cc(F)ccc2[C@H]2Cc3nc(N)nc(C)c3C(=O)N2)cnc1N` [Compound 75, (R)-2-Amino-7-[2-(5-amino-6-ethoxy-pyrazin-2-yl)-4-fluoro-phenyl]-4-methyl-7,8-dihydro-6H-pyrido[4,3-d]pyrimidin-5-one], the IC50 was < 10 µM.

The experiment is the same for the next values; noted with them: Table 3; competition with biotinylated radicicol.
In the case of `COc1ccc(CN2C(=O)c3c(C)nc(N)nc3C[C@@H]2c2ccc(F)cc2Br)c(OC)c1` [Compound 114, (R)-2-Amino-7-(2-bromo-4-fluoro-phenyl)-6-(2,4-dimethoxy-benzyl)-4-methyl-7,8-dihydro-6H-pyrido[4,3-d]pyrimidin-5-one], the IC50 is > 10 µM.

`COc1cccc(-c2cc(F)ccc2[C@H]2Cc3nc(N)ncc3C(=O)N2)n1` [Compound 96, (R)-2-Amino-7-[4-fluoro-2-(6-methoxy-pyridin-2-yl)-phenyl]-7,8-dihydro-6H-pyrido[4,3-d]pyrimidin-5-one]: the IC50 was < 10 µM.

Take `COc1nc(-c2cc(F)ccc2[C@H]2Cc3nc(N)nc(C)c3C(=O)N2)cs1` [Compound 95, (R)-2-Amino-7-[4-fluoro-2-(2-methoxy-thiazol-4-yl)-phenyl]-4-methyl-7,8-dihydro-6H-pyrido[4,3-d]pyrimidin-5-one]: the IC50 is < 10 µM.

For the compound `Cc1nc(N)nc2c1C(=O)N(CC(C)C)[C@@H](c1ccc(F)cc1-c1cccnc1F)C2` [Compound 157, (R)-2-Amino-7-[4-fluoro-2-(2-fluoro-pyridin-3-yl)-phenyl]-6-isobutyl-4-methyl-7,8-dihydro-6H-pyrido[4,3-d]pyrimidin-5-one], the IC50 was < 10 µM.

Take `CCN1C(=O)c2c(C)nc(N)nc2C[C@@H]1c1ccc(F)cc1-c1cnc(OC)nc1OC` [Compound 111, (R)-2-Amino-7-[2-(2,4-dimethoxy-pyrimidin-5-yl)-4-fluoro-phenyl]-6-ethyl-4-methyl-7,8-dihydro-6H-pyrido[4,3-d]pyrimidin-5-one]: the IC50 was > 10 µM.

On to `COc1ccncc1-c1cc(F)ccc1[C@H]1Cc2nc(N)nc(C)c2C(=O)N1CCC(C)C` [Compound 153, (R)-2-Amino-7-[4-fluoro-2-(4-methoxy-pyridin-3-yl)-phenyl]-4-methyl-6-(3-methyl-butyl)-7,8-dihydro-6H-pyrido[4,3-d]pyrimidin-5-one], for which the IC50 is < 10 µM.

As to `COc1cncc(-c2cc(F)ccc2[C@H]2Cc3nc(N)nc(C)c3C(=O)N2Cc2cccc(C(F)(F)F)c2)n1` [Compound 127, (R)-2-Amino-7-[4-fluoro-2-(6-methoxy-pyrazin-2-yl)-phenyl]-4-methyl-6-(3-trifluoromethyl-benzyl)-7,8-dihydro-6H-pyrido[4,3-d]pyrimidin-5-one], the IC50 was < 10 µM.

Take `COc1cncc(-c2cc(F)ccc2[C@H]2Cc3nc(N)nc(C)c3C(=O)N2CCO)n1` [Compound 113, (R)-2-Amino-7-[4-fluoro-2-(6-methoxy-pyrazin-2-yl)-phenyl]-6-(2-hydroxy-ethyl)-4-methyl-7,8-dihydro-6H-pyrido[4,3-d]pyrimidin-5-one]: the IC50 was < 10 µM.

Still in this experiment, the particulars now being: Table 4; competition with biotinylated radicicol.
With `COc1ccnc(-c2cc(F)ccc2[C@H]2Cc3nc(N)nc(C)c3C(=O)N2)n1` [Compound 195, (R)-2-Amino-7-[4-fluoro-2-(4-methoxy-pyrimidin-2-yl)-phenyl]-4-methyl-7,8-dihydro-6H-pyrido[4,3-d]pyrimidin-5-one], the IC50 is < 10 µM.

`CCOc1cncc(-c2cc(F)ccc2[C@H]2Cc3nc(N)nc(CC)c3C(=O)N2)n1` [Compound 217, (R)-2-Amino-7-[2-(6-ethoxy-pyrazin-2-yl)-4-fluoro-phenyl]-4-ethyl-7,8-dihydro-6H-pyrido[4,3-d]pyrimidin-5-one]: the IC50 is < 10 µM.

Turning to `Cc1nc(N)nc2c1C(=O)N[C@@H](c1ccc(F)cc1-c1n[nH]c(=O)o1)C2` [Compound 222, (R)-2-Amino-7-[4-fluoro-2-(5-oxo-4,5-dihydro-[1,3,4]oxadiazol-2-yl)-phenyl]-4-methyl-7,8-dihydro-6H-pyrido[4,3-d]pyrimi[…]din-5-one], the half-maximal inhibitory concentration (IC50) is ≥ 10 µM.

Turning to `CCOc1cncc(-c2cc(OC)ccc2[C@H]2Cc3nc(N)nc(C)c3C(=O)N2)n1` [Compound 239, (R)-2-Amino-7-[2-(6-ethoxy-pyrazin-2-yl)-4-methoxy-phenyl]-4-methyl-7,8-dihydro-6H-pyrido[4,3-d]pyrimidin-5-one], the IC50 was < 10 µM.

For the compound `CCc1nc(N)nc2c1C(=O)N[C@@H](c1ccc(F)cc1Br)C2` [Compound 210, (R)-2-Amino-7-(2-bromo-4-fluoro-phenyl)-4-ethyl-7,8-dihydro-6H-pyrido[4,3-d]pyrimidin-5-one], the half-inhibitory concentration (IC50) was ≥ 10 µM.

On to `CCOc1ccnc(-c2cc(F)ccc2[C@H]2Cc3nc(N)nc(C)c3C(=O)N2)n1` [Compound 193, (R)-2-Amino-7-[2-(4-ethoxy-pyrimidin-2-yl)-4-fluoro-phenyl]-4-methyl-7,8-dihydro-6H-pyrido[4,3-d]pyrimidin-5-one], for which the IC50 was < 10 µM.

As to `COc1nc(-c2cc(F)ccc2[C@H]2Cc3nc(N)nc(C)c3C(=O)N2)ccc1N` [Compound 190, (R)-2-Amino-7-[2-(5-amino-6-methoxy-pyridin-2-yl)-4-fluoro-phenyl]-4-methyl-7,8-dihydro-6H-pyrido[4,3-d]pyrimidin-5-o[…]ne], the IC50 is < 10 µM.
